Measured values taken from PubChem BioAssay AID1963843 (Molecular Pharmacology Branch, DTP, NCI, 2024).
pIC50: −log10 of the molar value.

System: 616215-338-R-J1-PDC complex spheroid viability
Assay: Anticancer human tumor 616215-338-R-J1-PDC patient-derived colon adenocarcinoma cell line growth inhibition [POLQ]
Details: for pIC50: curve of first compound; for viability, T/C: stronger effect = lower value; active = viability on the fitted dose curve at most 10% of control; inactive = the rest
Summary of the method: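 Three-cell-type spheroids modelling solid tumor plus stroma served as the readout system; POL inhibitors were tested individually and in combination, concentration ranges set by clinical Cmax where known.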

[1] = second compound 0.0316 µM, first compound 0.0316 µM
[2] = second compound 0.0316 µM, first compound 0.1 µM
[3] = second compound 0.0316 µM, first compound 0.316 µM
[4] = second compound 0.0316 µM, first compound 1 µM
[5] = second compound 0.0316 µM, first compound 3.16 µM
[6] = second compound 0.0316 µM, first compound 10 µM
[7] = second compound 0.1 µM, first compound 0.0316 µM
[8] = second compound 0.1 µM, first compound 0.1 µM
[9] = second compound 0.1 µM, first compound 0.316 µM
[10] = second compound 0.1 µM, first compound 1 µM
[11] = second compound 0.1 µM, first compound 3.16 µM
[12] = second compound 0.1 µM, first compound 10 µM
[13] = second compound 0.316 µM, first compound 0.0316 µM
[14] = second compound 0.316 µM, first compound 0.1 µM
[15] = second compound 0.316 µM, first compound 0.316 µM
[16] = second compound 0.316 µM, first compound 1 µM
[17] = second compound 0.316 µM, first compound 3.16 µM
[18] = second compound 0.316 µM, first compound 10 µM
[19] = second compound 1 µM, first compound 0.0316 µM
[20] = second compound 1 µM, first compound 0.1 µM
[21] = second compound 1 µM, first compound 0.316 µM
[22] = second compound 1 µM, first compound 1 µM
[23] = second compound 1 µM, first compound 3.16 µM
[24] = second compound 1 µM, first compound 10 µM
[25] = second compound 3.16 µM, first compound 0.0316 µM
[26] = second compound 3.16 µM, first compound 0.1 µM
[27] = second compound 3.16 µM, first compound 0.316 µM
[28] = second compound 3.16 µM, first compound 1 µM
[29] = second compound 3.16 µM, first compound 3.16 µM
[30] = second compound 3.16 µM, first compound 10 µM
[31] = second compound 10 µM, first compound 0.0316 µM
[32] = second compound 10 µM, first compound 0.1 µM
[33] = second compound 10 µM, first compound 0.316 µM
[34] = second compound 10 µM, first compound 1 µM
[35] = second compound 10 µM, first compound 3.16 µM
[36] = second compound 10 µM, first compound 10 µM
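Note: spheroids exposed to compounds for one week before readout.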
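Throughout, for viability, T/C: percent viability relative to DMSO vehicle wells taken as 100%.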

COc1ccc([C@@H](O)c2cc(-c3ncnc4cc(N5CCOCC5)ccc34)c(F)cc2Cl)nn1 + Nc1ccc(C#CCN(C(=O)Cc2ncc(C(F)(F)F)cc2C(F)(F)F)c2ccc(F)cc2)nn1
< 5.00: pIC50 (second compound 0.0316 µM) | pIC50 (second compound 0.316 µM) | pIC50 (second compound 1 µM) | pIC50 (second compound 3.16 µM)
5.33: pIC50 (second compound 10 µM)
5.02: pIC50 (second compound 0.1 µM)
inactive: viability, T/C [1] 90.8% | viability, T/C [2] 106% | viability, T/C [3] 96% | viability, T/C [4] 93% | viability, T/C [5] 95.8% | viability, T/C [6] 61.9% | viability, T/C [7] 90.6% | viability, T/C [8] 115% | viability, T/C [9] 106% | viability, T/C [10] 94% | viability, T/C [11] 92.3% | viability, T/C [12] 47.7% | viability, T/C [13] 97.4% | viability, T/C [14] 92.1% | viability, T/C [15] 96.9% | viability, T/C [16] 107% | viability, T/C [17] 90.3% | viability, T/C [18] 52.7% | viability, T/C [19] 107% | viability, T/C [20] 118% | viability, T/C [21] 94.5% | viability, T/C [22] 87.2% | viability, T/C [23] 94.4% | viability, T/C [24] 49.8% | viability, T/C [25] 113% | viability, T/C [26] 109% | viability, T/C [27] 93.7% | viability, T/C [28] 85.7% | viability, T/C [29] 77.7% | viability, T/C [30] 47.9% | viability, T/C [31] 103% | viability, T/C [32] 99.9% | viability, T/C [33] 88.7% | viability, T/C [34] 76.5% | viability, T/C [35] 45.8% | viability, T/C [36] 50%

O=C(c1cc(Cc2n[nH]c(=O)c3ccccc23)ccc1F)N1CCN(C(=O)C2CC2)CC1 + Cc1cccc(N(C)C(=O)C2C(O)CCN2c2nc(C)cc(C(F)(F)F)c2C#N)c1
inactive: viability, T/C [1] 105% | viability, T/C [2] 93.8% | viability, T/C [3] 102% | viability, T/C [4] 98.4% | viability, T/C [5] 103% | viability, T/C [6] 87.8% | viability, T/C [7] 103% | viability, T/C [8] 98.4% | viability, T/C [9] 107% | viability, T/C [10] 107% | viability, T/C [11] 99.9% | viability, T/C [12] 94.3% | viability, T/C [13] 95.3% | viability, T/C [14] 102% | viability, T/C [15] 108% | viability, T/C [16] 98.9% | viability, T/C [17] 108% | viability, T/C [18] 89.2% | viability, T/C [19] 111% | viability, T/C [20] 106% | viability, T/C [21] 105% | viability, T/C [22] 101% | viability, T/C [23] 102% | viability, T/C [24] 78% | viability, T/C [25] 103% | viability, T/C [26] 102% | viability, T/C [27] 95.6% | viability, T/C [28] 103% | viability, T/C [29] 97.3% | viability, T/C [30] 88.4% | viability, T/C [31] 113% | viability, T/C [32] 101% | viability, T/C [33] 100% | viability, T/C [34] 104% | viability, T/C [35] 110% | viability, T/C [36] 86.6%
< 5.00: pIC50 (second compound 0.0316 µM) | pIC50 (second compound 0.1 µM) | pIC50 (second compound 0.316 µM) | pIC50 (second compound 1 µM) | pIC50 (second compound 3.16 µM) | pIC50 (second compound 10 µM)

CC(=O)O[C@H]1C(=O)[C@@]2(C)[C@H]([C@H](OC(=O)c3ccccc3)[C@]3(O)C[C@H](OC(=O)[C@H](O)[C@@H](NC(=O)c4ccccc4)c4ccccc4)C(C)=C1C3(C)C)[C@]1(OC(C)=O)CO[C@@H]1C[C@@H]2O + Cc1cccc(N(C)C(=O)C2C(O)CCN2c2nc(C)cc(C(F)(F)F)c2C#N)c1
inactive: viability, T/C (second compound 0.0316 µM, first compound 0.00949 µM) 34.7% | viability, T/C (second compound 0.0316 µM, first compound 0.03 µM) 20.2% | viability, T/C (second compound 0.0316 µM, first compound 0.0949 µM) 20.4% | viability, T/C (second compound 0.0316 µM, first compound 0.3 µM) 18.9% | viability, T/C (second compound 0.0316 µM, first compound 0.949 µM) 19.3% | viability, T/C (second compound 0.0316 µM, first compound 3 µM) 19.1% | viability, T/C (second compound 0.1 µM, first compound 0.00949 µM) 31.6% | viability, T/C (second compound 0.1 µM, first compound 0.03 µM) 22.5% | viability, T/C (second compound 0.1 µM, first compound 0.0949 µM) 17.3% | viability, T/C (second compound 0.1 µM, first compound 0.3 µM) 21.5% | viability, T/C (second compound 0.1 µM, first compound 0.949 µM) 17.3% | viability, T/C (second compound 0.1 µM, first compound 3 µM) 17.4% | viability, T/C (second compound 0.316 µM, first compound 0.00949 µM) 39.5% | viability, T/C (second compound 0.316 µM, first compound 0.03 µM) 23.8% | viability, T/C (second compound 0.316 µM, first compound 0.0949 µM) 22.5% | viability, T/C (second compound 0.316 µM, first compound 0.3 µM) 15.8% | viability, T/C (second compound 0.316 µM, first compound 0.949 µM) 17.7% | viability, T/C (second compound 0.316 µM, first compound 3 µM) 16.4% | viability, T/C (second compound 1 µM, first compound 0.00949 µM) 36% | viability, T/C (second compound 1 µM, first compound 0.03 µM) 27.6% | viability, T/C (second compound 1 µM, first compound 0.0949 µM) 22.1% | viability, T/C (second compound 1 µM, first compound 0.3 µM) 13.1% | viability, T/C (second compound 1 µM, first compound 0.949 µM) 19% | viability, T/C (second compound 1 µM, first compound 3 µM) 18.8% | viability, T/C (second compound 3.16 µM, first compound 0.00949 µM) 40.9% | viability, T/C (second compound 3.16 µM, first compound 0.03 µM) 21.6% | viability, T/C (second compound 3.16 µM, first compound 0.0949 µM) 23.9% | viability, T/C (second compound 3.16 µM, first compound 0.3 µM) 15.6% | viability, T/C (second compound 3.16 µM, first compound 0.949 µM) 21.7% | viability, T/C (second compound 3.16 µM, first compound 3 µM) 17.4% | viability, T/C (second compound 10 µM, first compound 0.00949 µM) 33.5% | viability, T/C (second compound 10 µM, first compound 0.03 µM) 26.9% | viability, T/C (second compound 10 µM, first compound 0.0949 µM) 21.2% | viability, T/C (second compound 10 µM, first compound 0.3 µM) 14.6% | viability, T/C (second compound 10 µM, first compound 0.949 µM) 21.6% | viability, T/C (second compound 10 µM, first compound 3 µM) 14.6%
> 8.02: pIC50 (second compound 0.0316 µM) | pIC50 (second compound 0.1 µM) | pIC50 (second compound 0.316 µM) | pIC50 (second compound 1 µM) | pIC50 (second compound 3.16 µM) | pIC50 (second compound 10 µM)
